The test system of test [1] is MMP-9 production of U937 cells. The test is described as follows: MMP-9 ELISA of conditioned media from TNFα-stimulated U937 monocyte cells. Format: cell-based, Human. The conditions noted are these: for MMP-9 production, Average: U937 cells, 24 hours, ELISA of conditioned media. On the procedure:
U937 cells and RPMI 1640 culture medium were obtained from ATCC. Human MMP-9 ELISA Kit (QUANTIKINE) was obtained from R&D Systems. Fetal Bovine Serum (FBS) was obtained from VWR, and the penicillin-streptomycin solution and Tumor Necrosis Factor α (TNFα) were obtained from Sigma.
Human leukemia U937 monocyte lymphoma cells were cultured in RPMI 1640 medium supplemented with 10% FBS and 1% Penicillin-Streptomycin solution. Cells were incubated at 37° C. in a humidified atmosphere containing 5% CO2 and 95% air. Before treatment, cells were transferred into RPMI containing 1% FBS for overnight. Cells were plated on a 48 well plate. Cell culture medium included either TNFα (250 ng/mL), Triclosan (1 ppm), or both agents together or no agent (control). Cells were incubated after treatment for 24 hours. Conditioned media were collected and store at −80° C. until analysis. Samples of conditioned media were subjected to enzyme-linked immunosorbent assays (ELISA) for MMP-9, according to commercial ELISA protocol (FIG. 1).
Background: An ELISA detects its analyte on a solid surface through an enzyme-linked reagent.

For test [2], the system named is MMP-13 expression in UMR 106-01 cells. In words: MMP-13 expression by real time quantitative RT-PCR in PTH stimulated UMR 106-01 cells. As to conditions: 4 hours; for MMP-13 expression in PTH stimulated UMR cells: PTH 10^-8 M. The class given is cell-based, Rat. On the procedure:
Parathyroid hormone (rat PTH 1-34) was purchased from Sigma. UMR 106-01 cells were cultured in Eagle's minimal essential medium (EMEM) supplemented with 25 mM Hepes pH 7.4, 1% nonessential amino acids, 100 units/ml penicillin, 100 μg/ml streptomycin. 5% fetal bovine serum. Real Time Quantitative RT-PCR was conducted according to the following method: UMR 106-01 cells were seeded in 12-well plates and cultured for 2-3 days in cell culture media. When cells were confluent, cell culture media was exchanged with 1% fetal bovine serum for overnight for cell starvation. Cells were pre-incubated with dentifrice for 15 min and then incubated with PTH (10^−8 M) for 4 hours.
Total RNA was isolated from UMR 106-01 cells stimulated with or without PTH with TRIzol reagent. Total RNA (0.1 μg) was reverse-transcribed to cDNA using the Invitrogen SUPERSCRIPT kit according to the manufacturer's instructions. All cDNAs were amplified by adding 2.5 μl of cDNA to the PCR mixture (22.5 μl) containing each primer (0.2 μM) and 12.5 μl of the Platinum SYBR Green qPCR SuperMix UDG (Invitrogen). The reactions were preincubated at 50° C. for 2 minutes to decontaminate dU-containing DNA by UDG, then at 95° C. for 2 minutes to inactivate UDG and activate Taq. The PCR program continued 49 cycles of denaturation at 95° C. for 15 seconds, annealing and elongation of the primers at 60° C. for 30 seconds. Relative quantification of gene expression was determined by using the 2-delta delta CT method where fold changes in gene expression are relative to control samples. All samples were normalized to β-actin.
All results were expressed as means±standard error (S.E.) of triplicate measurements with all experiments being repeated at least three times. Statistical analyses were carried out using the Student's t test.

The conditions of test [3]: PEG 600 present in a weight ratio of 25 triclosan:1 PEG 600, versus absence of polyethylene glycol; cited from earlier work.

Take `Oc1cc(Cl)ccc1Oc1ccc(Cl)cc1Cl` [Triclosan, 2,4,4′-trichloro-2′-hydroxydiphenyl ether]: the “MMP-9 level in TNFα stimulated U937 cells” value in test [1] (Triclosan at 1 ppm) is “significantly reduced”. In test [1] (TNFα 250 ng/mL + Triclosan 1 ppm), the “MMP-9 production, Average” value stood at 0.155 ng/mL. Moreover, the “MMP-13 expression in PTH stimulated UMR cells” value in test [2] (1 ppm), in test [2] (4 ppm) and in test [2] (10 ppm) was “significantly reduced” throughout. Also, in test [3], the “factor by which antibacterial activity of triclosan is reduced” value is 10-20.
In the case of “PTH: Parathyroid hormone (rat PTH 1-34) purchased from Sigma, used to stimulate MMP-13 expression (AVSEIQLMHNLGKHLASVERMQWLRKKLQDVHNF; Parathyroid hormone; UniProt P04089 32-65, looked up, fragment)”, the “MMP-13 expression in UMR cells” value in test [2] (stimulated with PTH 10^-8 M) is “increase”.
As to TNFα, in test [1] (TNFα 250 ng/mL alone), the “MMP-9 production, Average” value came to 0.275 ng/mL. For the same compound, in test [1] (stimulated with TNFα), the “MMP-9 level in U937 cells” value is given as “increase”.
